# Paper PMC7424068, “Design, Synthesis, and Biological Evaluation of Novel Thiazolidinone-Containing Quinoxaline-1,4-di-N-oxides as Antimycobacterial and Antifungal Agents” (Frontiers in Chemistry, 2020)
# Where two headings read alike, the source gives them in different places.
# Assays:
# [1] = system: Mtb H37Rv (ATCC27294); test: Antimycobacterial activity, microplate Alamar blue assay (MABA); format: cell-based, Mycobacterium tuberculosis; conditions: for antimycobacterial activity (in words): Mtb strain H37Rv; for MIC: Mycobacterium tuberculosis, Mtb H37Rv
# [2] = system: VERO cell line; test: Cytotoxicity MTT assay; format: cell-based; conditions: Chlorocebus sabaeus, cytotoxicity in VERO cells, 72 h
# Experimental: VERO cells (2 × 10^4 cells) were seeded into 96-well plates and incubated for 12 h. Serial dilutions of the compounds were mixed with the cell suspension in the plates. Both treated cells and blank and solvent controls were incubated for 72 h, followed by incubation with MTT (0.5 mg/mL) for another 4 h. The microplates were measured at 570 nm using a multimode reader (Infinite M200, Tecan). The percentage of viable cells was calculated as the mean with respect to the controls set to 100%. Triplicate wells were analyzed for each concentration. IC50 was defined as the concentration that reduced the viable cells by 50% compared to the untreated control cells. It was considered significant when the SI was more than 10.
# [3] = system: C. albicans (ATCC90028); test: Antifungal activity, broth microdilution; format: cell-based, Candida albicans
# Experimental: (§1) All synthesized compounds and the positive control drugs amphotericin B and ketoconazole were tested for their in vitro antifungal activity. Antifungal activity was evaluated against four fungi, C. albicans (ATCC90028), C. tropicalis (ATCC7349), A. fumigatus (3.5352), and C. neoformans (2.3201), by broth microdilution according to the protocols from the NCCLS (Jiang et al., [2014]). Briefly, all tested compounds were dissolved in DMSO, and the solutions were diluted with fresh broth medium. All of the fungi-seeded broth (1 × 10^5 colony-forming units [CFU]/mL) were prepared in RPMI 1640 medium and added into the serially diluted drug solution. The tubes were incubated at 28°C, and the MIC (μg/mL) was recorded 72–96 h post-incubation. Broth control (without fungi), growth controls (with fungi and without drug), solvent (DMSO) control, and drug control for both test drugs and standard drugs were set under identical conditions. The minimum drug concentration in the tubes in which no apparent growth of the organism was observed represented the MIC of the compounds.
# [4] = system: A. fumigatus (3.5352); test: Antifungal activity, broth microdilution; format: cell-based; conditions: Aspergillus fumigatus
# Experimental: as §1
# [5] = system: C. neoformans (2.3201); test: Antifungal activity, broth microdilution; format: cell-based; conditions: Cryptococcus neoformans
# Experimental: as §1
# [6] = system: C. tropicalis (ATCC7349); test: Antifungal activity, broth microdilution; format: cell-based; conditions: Candida tropicalis
# Experimental: as §1
# [7] = system: TB-infected macrophage model; test: Macrophage assay (TB-infected macrophage model); format: cell-based, Mycobacterium tuberculosis; conditions: for EC90: Mycobacterium tuberculosis, Macrophage, 168 h, concentration causing 90% reduction in residual mycobacterial growth after 7 days; for EC99: concentration causing 99% reduction in residual mycobacterial growth after 7 days
# [8] = system: Candida albicans, Candida tropicalis, Aspergillus fumigatus, and Cryptococcus neoformans; test: Antifungal activity, broth microdilution, stated for the four fungi together; format: cell-based; conditions: read-out: MIC (antifungal, over the four fungi)
# Experimental: as §1
# [9] = system: M. tuberculosis (Mtb) strain H37Rv; design: method as in Ortega et al., 2001; Vicente et al., 2009; conditions: ref Ortega et al., 2001, Vicente et al., 2009; cited from earlier work
# [10] = repeated in Table 5 for the 3D-QSAR models, read-out: MIC
# [11] = experimental pMIC, Table 5, read-out: pMIC exp (converted)
# [12] = Candida albicans ATCC 90028, read-out: MIC
# [13] = A. fumigatus 3.5352, read-out: MIC
# [14] = C. neoformans 2.3201, read-out: MIC
# [15] = C. tropicalis ATCC 7349, read-out: MIC
# [16] = C. albicans, C. tropicalis, A. fumigatus, C. neoformans together
SMILES,antimycobacterial activity (in words) [1],"MIC ([1]; MABA assay, read-out: MIC) [µg/mL]","MIC [1, 10] [µg/mL]","MIC [1, 11] [µM]",IC50 [2] [µg/mL],"MIC [3, 12] [µg/mL]","MIC [4, 13] [µg/mL]","MIC [5, 14] [µg/mL]","MIC [6, 15] [µg/mL]",melting point [°C],EC90 [7] [µg/mL],EC99 [7] [µg/mL],"MIC [8, 16] [µg/mL]",MIC [9] [µg/mL],MIC ([3]; Candida albicans) [µg/mL],MIC [4] [µg/mL],MIC [5] [µg/mL],MIC [6] [µg/mL],MIC [8] [µg/mL]
"O=C1CSC(c2c[n+]([O-])c3ccccc3[n+]2[O-])N1c1ccccc1 (centres unmarked) [2a, 2-(3′-phenyl-4′(5H)-thiazolidinone)-quinoxaline-1,4-di-N-oxide]",good antimycobacterial activity,6.25,6.25,18.5,144,16,32,16,8,245 to 248,–,–,–,–,–,–,–,–,–
"O=C1CSC(c2c[n+]([O-])c3ccccc3[n+]2[O-])N1c1ccc(F)cc1 (centres unmarked) [2d, 2-(3′-P-fluorophenyl-4′(5H)-thiazolidinone)-quinoxaline-1,4-di-N-oxide]",good antimycobacterial activity,3.13,3.13,8.77,123,16,32,8,8,240 to 242,–,–,–,–,–,–,–,–,–
"O=C1CSC(c2c[n+]([O-])c3ccccc3[n+]2[O-])N1c1ccc(Cl)cc1 (centres unmarked) [2e, 2-(3′-P-chlorophenyl-4′(5H)-thiazolidinone)-quinoxaline-1,4-di-N-oxide]",good antimycobacterial activity,≤ 3.13,3.13,8.39,116,8,32,16,8,249 to 252,–,–,–,–,–,–,–,–,–
"Cc1ccc2c(c1)[n+]([O-])c(C1SCC(=O)N1c1ccc(F)cc1)c[n+]2[O-] (centres unmarked) [2j, 7-CH3-2-(3′-P-fluorophenyl-4′(5H)-thiazolidinone)-quinoxaline-1,4-di-N-oxide]",good antimycobacterial activity,6.25,6.25,16.9,114,16,32,16,8,243 to 245,–,–,–,–,–,–,–,–,–
"Cc1ccc2c(c1)[n+]([O-])c(C1SCC(=O)N1c1ccc(Cl)cc1)c[n+]2[O-] (centres unmarked) [2k, 7-CH3-2-(3′-P-chlorophenyl-4′(5H)-thiazolidinone)-quinoxaline-1,4-di-N-oxide]",good antimycobacterial activity,≤ 3.13,3.13,8.09,102,32,32,32,16,244 to 248,–,–,–,–,–,–,–,–,–
"O=C1CSC(c2c[n+]([O-])c3ccc(F)cc3[n+]2[O-])N1c1ccccc1 (centres unmarked) [2q, 7-F-2-(3′-phenyl-4′(5H)-thiazolidinone)-quinoxaline-1,4-di-N-oxide]",–,6.25,6.25,17.5,126,8,16,16,4,249 to 252,–,–,–,–,–,–,–,–,–
"O=C1CSC(c2c[n+]([O-])c3ccc(F)cc3[n+]2[O-])N1c1ccc(F)cc1 (centres unmarked) [2t, 7-F-2-(3′-P-fluorophenyl-4′(5H)-thiazolidinone)-quinoxaline-1,4-di-N-oxide]",good antimycobacterial activity,1.56,1.56,4.16,101,4,4,4,2,250 to 253,1.66,5.25,2 to 4,–,–,–,–,–,–
"O=C1CSC(c2c[n+]([O-])c3ccc(F)cc3[n+]2[O-])N1c1ccc(Cl)cc1 (centres unmarked) [2u, 7-F-2-(3′-P-chlorophenyl-4′(5H)-thiazolidinone)-quinoxaline-1,4-di-N-oxide]",good antimycobacterial activity,–,1.56,3.99,91.2,4,2,4,4,249 to 252,0.84,3.27,2 to 4,–,–,–,–,–,–
"O=C1CSC(c2c[n+]([O-])c3ccc(Cl)cc3[n+]2[O-])N1c1ccccc1 (centres unmarked) [2v, 7-Cl-2-(3′-phenyl-4′(5H)-thiazolidinone)-quinoxaline-1,4-di-N-oxide]",–,≤ 3.13,3.13,8.39,119,8,4,8,8,248 to 250,–,–,–,–,–,–,–,–,–
"Cc1ccc(N2C(=O)CSC2c2c[n+]([O-])c3ccc(Cl)cc3[n+]2[O-])cc1 (centres unmarked) [2w, 7-Cl-2-(3′-P-methylphenyl-4′(5H)-thiazolidinone)-quinoxaline-1,4-di-N-oxide]",–,6.25,6.25,16.1,125,8,8,4,4,250 to 252,–,–,–,–,–,–,–,–,–
"O=C1CSC(c2c[n+]([O-])c3ccc(Cl)cc3[n+]2[O-])N1c1ccc(F)cc1 (centres unmarked) [2y, 7-Cl-2-(3′-P-fluorophenyl-4′(5H)-thiazolidinone)-quinoxaline-1,4-di-N-oxide]",good antimycobacterial activity,–,1.56,3.99,107,2,4,2,4,251 to 253,1.33,4.58,2 to 4,–,–,–,–,–,–
"O=C1CSC(c2c[n+]([O-])c3ccc(Cl)cc3[n+]2[O-])N1c1ccc(Cl)cc1 (centres unmarked) [2z, 7-Cl-2-(3′-P-chlorophenyl-4′(5H)-thiazolidinone)-quinoxaline-1,4-di-N-oxide]",good antimycobacterial activity,–,1.56,3.85,94.6,4,4,4,4,252 to 255,0.92,3.93,2 to 4,–,–,–,–,–,–
"Cc1ccc2c(c1)[n+]([O-])c(C#N)c(-c1ccc(F)cc1)[n+]2[O-] [7-methyl-3-(4′-fluoro)phenylquinoxaline-2-carbonitrile-1,4-di-N-oxide]",–,–,–,–,–,–,–,–,–,–,–,–,–,< 0.2,–,–,–,–,–
"C[C@@H]1[C@H](O)[C@@H](C)/C=C/C=C/C=C/C=C/C=C/C=C/C=C/[C@H](O[C@@H]2O[C@H](C)[C@@H](O)[C@H](N)[C@@H]2O)C[C@@H]2O[C@](O)(C[C@@H](O)C[C@@H](O)[C@H](O)CC[C@@H](O)C[C@@H](O)CC(=O)O[C@H]1C)C[C@H](O)[C@H]2C(=O)O [AMB, Amphotericin b, reference compound]",–,–,–,–,–,1,0.5,0.5,2,–,–,–,0.25 to 2,–,–,–,–,–,–
"CC(=O)N1CCN(c2ccc(OCC3COC(Cn4ccnc4)(c4ccc(Cl)cc4Cl)O3)cc2)CC1 (centres unmarked) [KCZ, Ketoconazole, reference compound]",–,–,–,–,–,–,–,–,–,–,–,–,–,–,0.25,0.5,0.25,0.5,0.25 to 2
